Common to all, as to assay type: cell-based
Assay [1] addresses T1, human serotonin transporter (hSERT) (Homo sapiens, UniProt P31645).
T1 construct: expressed in transfected cells
Put plainly: Assay of monoamine uptake: inhibition of serotonin uptake. The conditions noted are these: Chinese Hamster Ovary cells expressing hSERT; 20 nM [3H]-neurotransmitter mixture; ambient temperature; read-out: hSERT pEC50 (inhibition of serotonin uptake) (converted). The method, then:
(§1) The in vitro test for the inhibition of dopamine and serotonin uptake was performed in Chinese Hamster Ovary cells expressing the human dopamine transporter (hDAT) or the human serotonin transporter (hSERT). The in vitro test for the inhibition of noradrenaline uptake was performed in Madin Darby Canine Kidney Cells (MDCK) expressing the human noradrenaline transporter (hNET). Briefly, cell lines stably overexpressing the appropriate human transporter were propagated and plated according to standard cell culture techniques. Following plating, cells were left to adhere for either one or two days. A 6-point serial dilution (normally 1E-5M to 1E-10M) of test and reference compounds was prepared, added to the washed cells and incubated for 5 minutes at ambient temperature for dopamine or serotonin transporter overexpressing and 37° C. for noradrenaline overexpressing cells. Next, a final concentration of 20 nM of appropriate neurotransmitter (mixture of [^3H]-neurotransmitter and non-labelled neurtoransmitter) was added and the cells were incubated for three or five minutes at ambient temperature for dopamine or serotonin transporter overexpressing cells or ten minutes at 37° C. for noradrenaline overexpressing cells. Following termination of the assay, Microscint-20 was added directly to the cells and the amount of radioactivity taken up by the cells was estimated by scintillation counting.
(§2) pEC50 values indicating inhibition of monoamine uptake were calculated using standard curve fitting techniques.

Assay [2] has as its target T2, human noradrenaline transporter (hNET) (Homo sapiens, UniProt P23975).
T2 construct: expressed in transfected cells
Kind of assay: Assay of monoamine uptake: inhibition of noradrenaline uptake. The conditions noted are these: MDCK cells expressing hNET; 20 nM [3H]-neurotransmitter mixture; 37° C.; read-out: hNET pEC50 (inhibition of noradrenaline uptake) (converted). The method, then:
as §1, §2

For assay [3], the target named is T3, human dopamine transporter (hDAT) (Homo sapiens, UniProt Q01959).
T3 construct: expressed in transfected cells
T3 sequence (Q01959 whole entry): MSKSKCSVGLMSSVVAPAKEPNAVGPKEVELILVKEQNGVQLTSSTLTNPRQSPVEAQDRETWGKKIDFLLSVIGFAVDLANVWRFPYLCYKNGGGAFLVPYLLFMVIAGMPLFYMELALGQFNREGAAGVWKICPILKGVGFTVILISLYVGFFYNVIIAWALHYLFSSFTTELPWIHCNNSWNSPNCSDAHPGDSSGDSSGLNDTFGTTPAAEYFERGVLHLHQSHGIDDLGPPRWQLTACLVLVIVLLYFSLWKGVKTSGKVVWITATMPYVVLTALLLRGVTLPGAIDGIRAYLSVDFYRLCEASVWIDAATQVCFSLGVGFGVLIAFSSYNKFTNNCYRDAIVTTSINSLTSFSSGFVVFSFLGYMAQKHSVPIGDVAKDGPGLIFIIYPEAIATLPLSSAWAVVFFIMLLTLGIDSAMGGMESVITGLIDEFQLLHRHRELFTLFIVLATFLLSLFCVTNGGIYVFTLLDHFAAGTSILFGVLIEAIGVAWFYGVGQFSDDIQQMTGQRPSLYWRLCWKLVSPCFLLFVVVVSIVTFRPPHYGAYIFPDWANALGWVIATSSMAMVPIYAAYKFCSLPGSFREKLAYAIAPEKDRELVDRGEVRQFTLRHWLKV
Kind of assay: Assay of monoamine uptake: inhibition of dopamine uptake. The conditions noted are these: Chinese Hamster Ovary cells expressing hDAT; 20 nM [3H]-neurotransmitter mixture; ambient temperature; read-out: hDAT pEC50 (inhibition of dopamine uptake) (converted). The method, then: as §1, §2

Some results are limits rather than exact numbers.

T2 sequence (P23975 whole entry): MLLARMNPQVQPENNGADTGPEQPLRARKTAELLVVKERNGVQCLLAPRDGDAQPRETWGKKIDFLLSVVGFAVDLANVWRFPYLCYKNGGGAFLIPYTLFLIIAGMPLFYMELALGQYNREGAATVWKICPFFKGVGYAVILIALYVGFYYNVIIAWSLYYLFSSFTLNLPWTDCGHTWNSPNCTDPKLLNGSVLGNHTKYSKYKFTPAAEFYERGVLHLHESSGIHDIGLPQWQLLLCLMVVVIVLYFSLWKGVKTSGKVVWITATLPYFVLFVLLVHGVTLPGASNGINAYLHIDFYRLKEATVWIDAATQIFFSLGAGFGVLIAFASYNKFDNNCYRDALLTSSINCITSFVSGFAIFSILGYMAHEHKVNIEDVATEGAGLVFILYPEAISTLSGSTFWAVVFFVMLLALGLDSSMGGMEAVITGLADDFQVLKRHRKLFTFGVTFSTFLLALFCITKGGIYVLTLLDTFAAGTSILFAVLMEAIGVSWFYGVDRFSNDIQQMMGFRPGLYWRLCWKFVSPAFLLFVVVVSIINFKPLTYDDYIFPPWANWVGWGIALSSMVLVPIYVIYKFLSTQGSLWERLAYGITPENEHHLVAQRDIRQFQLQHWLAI
T1 sequence (P31645 whole entry): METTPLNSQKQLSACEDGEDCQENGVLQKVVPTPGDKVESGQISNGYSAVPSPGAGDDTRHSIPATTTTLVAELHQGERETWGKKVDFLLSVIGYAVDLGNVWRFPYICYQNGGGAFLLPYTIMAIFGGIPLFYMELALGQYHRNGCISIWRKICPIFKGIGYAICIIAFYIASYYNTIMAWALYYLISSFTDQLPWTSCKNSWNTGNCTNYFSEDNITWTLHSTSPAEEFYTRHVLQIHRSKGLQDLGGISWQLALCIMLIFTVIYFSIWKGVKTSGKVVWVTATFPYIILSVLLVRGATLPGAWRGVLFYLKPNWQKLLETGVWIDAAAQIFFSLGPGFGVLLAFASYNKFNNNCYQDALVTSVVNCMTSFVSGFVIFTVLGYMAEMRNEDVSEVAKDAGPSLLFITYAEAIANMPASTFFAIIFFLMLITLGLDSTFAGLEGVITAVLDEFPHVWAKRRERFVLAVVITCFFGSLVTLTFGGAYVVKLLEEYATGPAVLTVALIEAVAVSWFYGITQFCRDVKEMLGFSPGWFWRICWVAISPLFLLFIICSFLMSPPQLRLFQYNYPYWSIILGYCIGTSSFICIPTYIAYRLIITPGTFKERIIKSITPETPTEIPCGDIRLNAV

Regarding `c1ccc(Oc2cccc(O[C@H]3C[C@H]4CC[C@@H](C3)N4)c2)cc1` [III.5, 3-endo-(3-Phenoxyphenoxy)-8-azabicyclo[3.2.1]octane], the EC50 in assay [1] is above 1000 nM; in assay [2], 100 to 1000 nM; in assay [3], below 100 nM.

For `COc1cc(Oc2ccccc2)cc(O[C@@H]2C[C@H]3CC[C@@H](C2)N3)c1F` [IV.9, 3-exo-(2-Fluoro-3-methoxy-5-phenoxyphenoxy)-8-azabicyclo[3.2.1]octane], the values for the EC50 in assay [1], in assay [2] and in assay [3] were above 1000 nM, below 100 nM and below 100 nM, respectively.

As for `Clc1cc(Oc2ccccc2)cc(O[C@@H]2C[C@H]3CC[C@@H](C2)N3)c1` [IV.19, 3-exo-(3-Chloro-5-phenoxyphenoxy)-8-azabicyclo[3.2.1]octane], the EC50 is above 1000 nM in assay [1], below 100 nM in assay [2] and below 100 nM in assay [3].

As for `N#Cc1ccc(-c2cc(C#N)cc(O[C@@H]3C[C@H]4CC[C@@H](C3)N4)c2)cc1` [VI.8, exo 5-(8-Azabicyclo[3.2.1]oct-3-yloxy)-biphenyl-3,4′-dicarbonitrile], the EC50 is below 100 nM in assay [1], above 1000 nM in assay [2] and above 1000 nM in assay [3].

Turning to `FC(F)(F)c1ccccc1-c1cccc(O[C@@H]2C[C@H]3CC[C@@H](C2)N3)c1` [IV.8, 3-exo-(2′-Trifluoromethylbiphenyl-3-yloxy)-8-azabicyclo[3.2.1]octane], the EC50 is 100 to 1000 nM in assay [1], below 100 nM in assay [2] and above 1000 nM in assay [3].

As to `N#Cc1ccc(-c2cc(C#N)cc(O[C@@H]3C[C@H]4CC[C@@H](C3)N4)c2)nc1` [IX.3, exo 6-(3-(8-Azabicyclo[3.2.1]oct-3-yloxy)-5-cyanophenyl)nicotinonitrile], the values for the EC50 in assay [1], in assay [2] and in assay [3] were below 100 nM, above 1000 nM and above 1000 nM, respectively.

In the case of `FC(F)(F)c1ccc(O[C@@H]2C[C@H]3CC[C@@H](C2)N3)cc1-c1ccccc1` [VI.3, 3-exo-(6-Trifluoromethylbiphenyl-3-yloxy)-8-azabicyclo[3.2.1]octane], the results for the EC50 in assay [1], in assay [2] and in assay [3] were 100 to 1000 nM, above 1000 nM and above 1000 nM, respectively.

Values taken from patent US7605170B2, “8-azabicyclo[3.2.1]octane derivatives” (N.V. Organon, priority 2005, dated 2009).
